Measured values as given in ChEMBL document CHEMBL3885861, “Open TG-GATES”.

Organism: Rattus norvegicus
Experiment: Open TG-GATES - Regimen: Daily Repeat
Type: toxicity, organism-based, Sprague-Dawley
Set-up: regimen Daily Repeat, gender Male, age 6 weeks
Conditions: in vivo, po, 100 mg/kg, route gavage, dose level Middle; for APTT / Bas / Eos / Fbg / Hb / Ht / Lym / MCH / MCHC / MCV / Mono / Neu / PT / Plat / RBC / Ret / WBC: tissue Blood; for KIDNEY_L / KIDNEY_R / KIDNEY_TOTAL: tissue Kidney; for LIVER: tissue Liver; for A/G / ALP / ALT / AST / BUN / CRE / Ca / Cl / DBIL / GLC / IP / K / LDH / Na / PL / RALB / TBIL / TC / TG / TP / gamma-GTP: tissue Plasma

Clc1c(Cl)c(Cl)c(Cl)c(Cl)c1Cl [PERCHLOROBENZENE]
TERMINAL_BW (72 h, time 3 day): 223.3 g | APTT (72 h, time 3 day): 15.9 s | Bas (72 h, time 3 day): 0% | Eos (72 h, time 3 day): 1.2% | Fbg (72 h, time 3 day): 221.4 mg/dL | Hb (72 h, time 3 day): 14.1 g/dL | Ht (72 h, time 3 day): 42.1% | Lym (72 h, time 3 day): 73.2% | MCH (72 h, time 3 day): 21.7 pg | MCHC (72 h, time 3 day): 33.5% | MCV (72 h, time 3 day): 64.8 fL | Mono (72 h, time 3 day): 7.4% | Neu (72 h, time 3 day): 18.2% | PT (72 h, time 3 day): 11.2 s | Plat (72 h, time 3 day): 104.2 x10_4/uL | RBC (72 h, time 3 day): 650.6 x10_4/ul | Ret (72 h, time 3 day): 7.5% | WBC (72 h, time 3 day): 113.8 x10_2/uL | KIDNEY_L (72 h, time 3 day): 1 g | KIDNEY_R (72 h, time 3 day): 1 g | KIDNEY_TOTAL (72 h, time 3 day): 2 g | LIVER (72 h, time 3 day): 13.1 g | A/G (72 h, time 3 day): 1.8 | ALP (72 h, time 3 day): 823 IU/L | ALT (72 h, time 3 day): 43.4 IU/L | AST (72 h, time 3 day): 65.8 IU/L | BUN (72 h, time 3 day): 16 mg/dL | CRE (72 h, time 3 day): 0.5 mg/dL | Ca (72 h, time 3 day): 10.6 mg/dL | Cl (72 h, time 3 day): 106.2 meq/L | DBIL (72 h, time 3 day): 0.006 mg/dL | GLC (72 h, time 3 day): 194.8 mg/dL | IP (72 h, time 3 day): 8.7 mg/dL | K (72 h, time 3 day): 5.2 meq/L | LDH (72 h, time 3 day): 121.4 IU/L | Na (72 h, time 3 day): 139 meq/L | PL (72 h, time 3 day): 168 mg/dL | RALB (72 h, time 3 day): 3.7 g/dL | TBIL (72 h, time 3 day): 0.4 mg/dL | TC (72 h, time 3 day): 91.8 mg/dL | TG (72 h, time 3 day): 162.4 mg/dL | TP (72 h, time 3 day): 5.8 g/dL | gamma-GTP (72 h, time 3 day): 1.6 IU/L | TERMINAL_BW ([…], time 7 day): 265.6 g | TERMINAL_BW ([…], time 14 day): 308.5 g | TERMINAL_BW ([…], time 28 day): 338.7 g | APTT ([…], time 7 day): 17.2 s | Bas ([…], time 7 day): 0% | Eos ([…], time 7 day): 1.2% | Fbg ([…], time 7 day): 238.8 mg/dL | Hb ([…], time 7 day): 14.5 g/dL | Ht ([…], time 7 day): 43.3% | Lym ([…], time 7 day): 64.2% | MCH ([…], time 7 day): 21.3 pg | MCHC ([…], time 7 day): 33.4% | MCV ([…], time 7 day): 63.7 fL | Mono ([…], time 7 day): 14.4% | Neu ([…], time 7 day): 20.4% | PT ([…], time 7 day): 11.7 s | Plat ([…], time 7 day): 115.6 x10_4/uL | RBC ([…], time 7 day): 680.8 x10_4/ul | Ret ([…], time 7 day): 5.7% | WBC ([…], time 7 day): 104 x10_2/uL | APTT ([…], time 14 day): 19.7 s | Bas ([…], time 14 day): 0% | Eos ([…], time 14 day): 1% | Fbg ([…], time 14 day): 263.2 mg/dL | Hb ([…], time 14 day): 14.5 g/dL | Ht ([…], time 14 day): 43.3% | Lym ([…], time 14 day): 77.6% | MCH ([…], time 14 day): 20.9 pg | MCHC ([…], time 14 day): 33.6% | MCV ([…], time 14 day): 62.3 fL | Mono ([…], time 14 day): 8% | Neu ([…], time 14 day): 13.6% | PT ([…], time 14 day): 12.2 s | Plat ([…], time 14 day): 117.2 x10_4/uL | RBC ([…], time 14 day): 695 x10_4/ul | Ret ([…], time 14 day): 4.6% | WBC ([…], time 14 day): 156.2 x10_2/uL | APTT ([…], time 28 day): 23.8 s | Bas ([…], time 28 day): 0% | Eos ([…], time 28 day): 2.2% | Fbg ([…], time 28 day): 320.6 mg/dL | Hb ([…], time 28 day): 15.3 g/dL | Ht ([…], time 28 day): 46% | Lym ([…], time 28 day): 65% | MCH ([…], time 28 day): 19.7 pg | MCHC ([…], time 28 day): 33.2% | MCV ([…], time 28 day): 59.4 fL | Mono ([…], time 28 day): 15.4% | Neu ([…], time 28 day): 17.8% | PT ([…], time 28 day): 15.8 s | Plat ([…], time 28 day): 100.2 x10_4/uL | RBC ([…], time 28 day): 774.8 x10_4/ul | Ret ([…], time 28 day): 3% | WBC ([…], time 28 day): 182.8 x10_2/uL | KIDNEY_L ([…], time 7 day): 1.2 g | KIDNEY_R ([…], time 7 day): 1.2 g | KIDNEY_TOTAL ([…], time 7 day): 2.3 g | KIDNEY_L ([…], time 14 day): 1.3 g | KIDNEY_R ([…], time 14 day): 1.3 g | KIDNEY_TOTAL ([…], time 14 day): 2.5 g | KIDNEY_L ([…], time 28 day): 1.5 g | KIDNEY_R ([…], time 28 day): 1.5 g | KIDNEY_TOTAL ([…], time 28 day): 2.9 g | LIVER ([…], time 7 day): 17.2 g | LIVER ([…], time 14 day): 21.6 g | LIVER ([…], time 28 day): 29.5 g | A/G ([…], time 7 day): 1.9 | ALP ([…], time 7 day): 631.4 IU/L | ALT ([…], time 7 day): 33 IU/L | AST ([…], time 7 day): 59.2 IU/L | BUN ([…], time 7 day): 17.2 mg/dL | CRE ([…], time 7 day): 0.7 mg/dL | Ca ([…], time 7 day): 10.7 mg/dL | Cl ([…], time 7 day): 104.2 meq/L | DBIL ([…], time 7 day): 0.01 mg/dL | GLC ([…], time 7 day): 179.8 mg/dL | IP ([…], time 7 day): 7.9 mg/dL | K ([…], time 7 day): 4.9 meq/L | LDH ([…], time 7 day): 127.8 IU/L | Na ([…], time 7 day): 137.8 meq/L | PL ([…], time 7 day): 191.6 mg/dL | RALB ([…], time 7 day): 3.9 g/dL | TBIL ([…], time 7 day): 0.5 mg/dL | TC ([…], time 7 day): 112.4 mg/dL | TG ([…], time 7 day): 151.6 mg/dL | TP ([…], time 7 day): 6.1 g/dL | gamma-GTP ([…], time 7 day): 1.8 IU/L | A/G ([…], time 14 day): 2 | ALP ([…], time 14 day): 470.8 IU/L | ALT ([…], time 14 day): 30.2 IU/L | AST ([…], time 14 day): 54.2 IU/L | BUN ([…], time 14 day): 17 mg/dL | CRE ([…], time 14 day): 0.6 mg/dL | Ca ([…], time 14 day): 10.4 mg/dL | Cl ([…], time 14 day): 106.6 meq/L | DBIL ([…], time 14 day): 0.014 mg/dL | GLC ([…], time 14 day): 171.2 mg/dL | IP ([…], time 14 day): 7.8 mg/dL | K ([…], time 14 day): 4.9 meq/L | LDH ([…], time 14 day): 102.2 IU/L | Na ([…], time 14 day): 140.2 meq/L | PL ([…], time 14 day): 192.6 mg/dL | RALB ([…], time 14 day): 4.4 g/dL | TBIL ([…], time 14 day): 0.5 mg/dL | TC ([…], time 14 day): 115.2 mg/dL | TG ([…], time 14 day): 145.2 mg/dL | TP ([…], time 14 day): 6.6 g/dL | gamma-GTP ([…], time 14 day): 2.8 IU/L | A/G ([…], time 28 day): 1.6 | ALP ([…], time 28 day): 316.6 IU/L | ALT ([…], time 28 day): 50.4 IU/L | AST ([…], time 28 day): 48.8 IU/L | BUN ([…], time 28 day): 21.8 mg/dL | CRE ([…], time 28 day): 0.7 mg/dL | Ca ([…], time 28 day): 11.2 mg/dL | Cl ([…], time 28 day): 105.6 meq/L | DBIL ([…], time 28 day): 0.014 mg/dL | GLC ([…], time 28 day): 159.6 mg/dL | IP ([…], time 28 day): 9.2 mg/dL | K ([…], time 28 day): 5.3 meq/L | LDH ([…], time 28 day): 157.4 IU/L | Na ([…], time 28 day): 143.4 meq/L | PL ([…], time 28 day): 193 mg/dL | RALB ([…], time 28 day): 4.6 g/dL | TBIL ([…], time 28 day): 0.3 mg/dL | TC ([…], time 28 day): 120.2 mg/dL | TG ([…], time 28 day): 116.2 mg/dL | TP ([…], time 28 day): 7.6 g/dL | gamma-GTP ([…], time 28 day): 11.4 IU/L
